Assay results reported in patent publication US20230346744A1, “SULFUR-CONTAINING COMPOUND USEFUL FOR TREATING OR PREVENTING PRESBYOPIA” (SANTEN PHARMACEUTICAL CO., LTD., priority 2020, published 2023).

Assays:
Type in all cases: in vivo
C57BL/6J mice [1] = experiment: Pharmacological Test-3: once-daily instillation of Compounds 1, 2 and 3 for 2 weeks, lens elasticity; settings: once per day for 14 days; for Lens elasticity improvement: 2.5 μL/eye, 8-month-old mice, vs vehicle control
Description: The effect of once-daily instillation of each of Compounds 1, 2 and 3 for 2 weeks on the lens elasticity was examined.
(§1) A vehicle comprising 1.0% (w/v) of CO35, 0.1% (w/v) of ethyl pyruvate, 0.269% (w/v) of sodium dihydrogenphosphate monohydrate (NaH2 PO4.H2O), 0.433% (w/v) of disodium hydrogenphosphate (Na2HPO4), 0.2% (w/v) of hydroxypropyl methylcellulose, 0.5% (w/v) of NaCl, and purified water (appropriate amount) was prepared.
Each of Compounds 1 and 2 was stirred with the addition of the vehicle to give a 0.1% (w/v) solution.
To Compound 3 was added the vehicle to give a 0.1% (w/v) suspension. The resulting 0.1% (w/v) suspension was diluted with the vehicle to give a 0.03% (w/v) solution. Further, the resulting 0.03% (w/v) solution was diluted with the vehicle to give a 0.01% (w/v) solution.
After preparation, all were frozen.
1) Each test sample (2.5 μL/eye) was instilled into both eyes of 8-month-old C57BL/6J mice with a Pipetman once per day (around 9:00) for 14 days.
(§2) 2) After the final instillation, the mice were euthanized by carbon dioxide inhalation, and then the eyeballs were extracted and rinsed with Hank's balanced salt solution (HBSS).
(§3) 3) The sclera near the optic nerve was cut with a razor, the lens was removed through the incision, and the removed lens was immersed in HBSS.
(§4) 4) The lens was placed on a glass slide, and an all-in-one fluorescence microscope BZ-9000 (Keyence) was used to capture an image of the lens (Image a).
(§5) 5) Next, one cover glass (Corning(registered trade mark) 22×22 mm Square) was placed on the lens, and an image in which the thickness of the lens changed due to the weight was similarly captured (Image b).
(§6) 6) A change in the lens diameter was calculated from Equation 1 wherein the lens diameter of Image a is subtracted from the lens diameter of Image b, as described below. Then, the lens elasticity improvement of each sample group compared with the vehicle control group was calculated from Equation 2 described below. The mean value of each group was based on 10 eyes.
(§7) Change in lens diameter=Lens diameter in Image b of each test sample−Lens diameter in Image a of each test sample Equation 1
(§8) Lens elasticity improvement of each sample group=Mean change in lens diameter of each Test sample group−Mean change in lens diameter of Vehicle control group Equation 2

C57BL/6J mice [2] = experiment: Pharmacological Test-4: once-daily instillation of Compounds 3 and 4 for 2 weeks, lens elasticity; settings: once per day for 14 days; for Lens elasticity improvement: 2.5 μL/eye, 8-month-old mice, vs vehicle control
Description: The effect of once-daily instillation of each of Compounds 3 and 4 for 2 weeks on the lens elasticity was examined.
as §1
Compound 3 was stirred with the addition of the vehicle to give a 0.03% (w/v) suspension.
Compound 4 was stirred with the addition of the vehicle to give a 0.1% (w/v) suspension. The resulting 0.1% (w/v) suspension was diluted with the vehicle to give a 0.03% (w/v) suspension. Further, the resulting 0.03% (w/v) suspension was diluted with the vehicle to give a 0.01% (w/v) suspension.
(§9) After preparation, all were refrigerated.
1) Each test sample (2.5 μL/eye) was instilled into both eyes of 8-month-old
C57BL/6J mice with a Pipetman once per day (around 9:00) for 14 days.
as §2, §3, §4, §5, §6, §7, §8

Japanese White rabbit = experiment: Ocular irritation test-2 (McDonald-Shadduck method); parameters: key to Irritation Score of anterior segment of the eye: Discharge / Irritation Score of anterior segment of the eye: Anterior chamber flare / Irritation Score of anterior segment of the eye: Light reflex / Irritation Score of anterior segment of the eye: Iris / Irritation Score of anterior segment of the eye: Corneal opacity / Irritation Score of anterior segment of the eye: Corneal angiogenesis / Irritation Score of anterior segment of the eye: Corneal epithelial disorder / Irritation Score of anterior segment of the eye: Conjunctival hyperemia / Irritation Score of anterior segment of the eye: Conjunctival edema: —: No noteworthy findings; settings: 50 μL/eye, 10 times at 30-minute intervals; for Irritation Score of anterior segment of the eye: Anterior chamber flare / Irritation Score of anterior segment of the eye: Conjunctival edema / Irritation Score of anterior segment of the eye: Corneal angiogenesis / Irritation Score of anterior segment of the eye: Corneal opacity / Irritation Score of anterior segment of the eye: Discharge / Irritation Score of anterior segment of the eye: Iris / Irritation Score of anterior segment of the eye: Light reflex / Irritation Score of anterior segment of the eye: Conjunctival hyperemia: 1 hour after the final instillation; for Irritation Score of anterior segment of the eye: Conjunctival hyperemia: scale +1 slight, +2 moderate, +3 severe; for Irritation Score of anterior segment of the eye: Corneal epithelial disorder: 3 hours after the final instillation
Description: A vehicle eye drop and 0.01% (w/v) and 0.1% (w/v) Compound 4 eye drops were prepared in the same manner as Preparation of Test sample in Pharmacological test-4.
The vehicle eye drop, and the 0.01% (w/v) and 0.1% (w/v) Compound 4 eye drops were each instilled into one eye of a Japanese White rabbit at a dose volume of 50 μL/eye with pipette 10 times at 30-minute intervals. One hour after the final instillation, ocular irritation of anterior segment of the eye was evaluated using a slit lamp according to the McDonald-Shadduck method. Observation for corneal epithelial disorder was conducted 3 hours after the final instillation.
The ocular irritation of anterior segment of the eye was scored according to the following criteria: • +1: slight; +2: moderate; +3: severe

C57BL/6J mice [3] = experiment: Pharmacological Test-5: once-daily instillation of Compounds 5, 6 and 7 for 2 weeks, lens elasticity; settings: once per day for 14 days; for Lens elasticity improvement: 2.5 μL/eye, 8-month-old mice, vs vehicle control
Description: The effect of once-daily instillation of each of Compounds 5, 6, and 7 for 2 weeks on the lens elasticity was examined.
as §1
Compound 5 was stirred with the addition of the vehicle to give a 0.1% (w/v) suspension. The resulting 0.1% (w/v) suspension was diluted with the vehicle to give a 0.03% (w/v) suspension.
Compound 6 was stirred with the addition of the vehicle to give a 0.1% (w/v) suspension. The resulting 0.1% (w/v) a suspension was diluted with the vehicle to give a 0.03% (w/v) suspension.
Compound 7 was stirred with the addition of the vehicle to give a 0.1% (w/v) suspension.
as §9
EVO6 was stirred with the addition of the vehicle to give a 0.03% (w/v) solution, which was for comparison in the test for Compounds 5, 6 and 7. After preparation, it was refrigerated.
1) Each test sample (2.5 μL/eye) was instilled into both eyes of 8-month-old C57BL/6J mice with a Pipetman once per day (around 13:30) for 14 days.
as §2, §3, §4, §5
as §6, with “8” for “10”
as §7, §8

[4] = all of the concentrations of 0.01%, 0.03% and 0.1%
[5] = concentrations of 0.03% and 0.1%

`OCCCCCC(S)CCS` (centres unmarked) [Compound 2, 6,8-Dimercaptooctan-1-ol] was tested, and the “Lens elasticity effect (in words)” value (C57BL/6J mice [1]; 0.03% sample group) was “potent elasticity improving effect” and the Lens elasticity improvement (C57BL/6J mice [1]; 0.03% sample) was 42.2 μm.

`OCCCCCC1CCSS1` (centres unmarked) [Compound 3, 5-(1,2-Dithiolan-3-yl)pentan-1-ol] showed a Lens elasticity improvement (C57BL/6J mice [1]; 0.01% sample) of 21.5 μm, a Lens elasticity improvement (C57BL/6J mice [1]; 0.03% sample) of 47.3 μm and a Lens elasticity improvement (C57BL/6J mice [1]; 0.1% sample) of 60.1 μm. The “Lens elasticity effect (in words)” value (C57BL/6J mice [1]; [4]) was “showed an elasticity improving effect” and the Lens elasticity improvement (C57BL/6J mice [2]; 0.03% sample) was 39.9 μm.

With `OCCCCC[C@@H]1CCSS1` [Compound 4] the “Irritation in anterior segment of the eye (in words)” value (Japanese White rabbit; 0.01% (w/v) and 0.1% (w/v) eye drops) was “No irritation was observed”, the “Irritation Score of anterior segment of the eye: Anterior chamber flare” value (Japanese White rabbit; 0.01% eye drop) was “—” and the “Irritation Score of anterior segment of the eye: Conjunctival edema” value (Japanese White rabbit; 0.01% eye drop) was “—”. For the same compound, the “Irritation Score of anterior segment of the eye: Corneal angiogenesis” value (Japanese White rabbit; 0.01% eye drop) was “—”, the “Irritation Score of anterior segment of the eye: Corneal opacity” value (Japanese White rabbit; 0.01% eye drop) was “—” and the “Irritation Score of anterior segment of the eye: Discharge” value (Japanese White rabbit; 0.01% eye drop) was “—”. For the same compound, the “Irritation Score of anterior segment of the eye: Iris” value (Japanese White rabbit; 0.01% eye drop) was “—”, the “Irritation Score of anterior segment of the eye: Light reflex” value (Japanese White rabbit; 0.01% eye drop) was “—” and the “Irritation Score of anterior segment of the eye: Conjunctival hyperemia” value (Japanese White rabbit; 0.01% eye drop) was “—”. For the same compound, the “Irritation Score of anterior segment of the eye: Corneal epithelial disorder” value (Japanese White rabbit; 0.01% eye drop) was “—”, the “Irritation Score of anterior segment of the eye: Anterior chamber flare” value (Japanese White rabbit; 0.1% eye drop) was “—” and the “Irritation Score of anterior segment of the eye: Conjunctival edema” value (Japanese White rabbit; 0.1% eye drop) was “—”. For the same compound, the “Irritation Score of anterior segment of the eye: Corneal angiogenesis” value (Japanese White rabbit; 0.1% eye drop) was “—”, the “Irritation Score of anterior segment of the eye: Corneal opacity” value (Japanese White rabbit; 0.1% eye drop) was “—” and the “Irritation Score of anterior segment of the eye: Discharge” value (Japanese White rabbit; 0.1% eye drop) was “—”. The “Irritation Score of anterior segment of the eye: Iris” value (Japanese White rabbit; 0.1% eye drop) was “—”, the “Irritation Score of anterior segment of the eye: Light reflex” value (Japanese White rabbit; 0.1% eye drop) was “—” and the “Irritation Score of anterior segment of the eye: Conjunctival hyperemia” value (Japanese White rabbit; 0.1% eye drop) was “—”. For the same compound, the “Irritation Score of anterior segment of the eye: Corneal epithelial disorder” value (Japanese White rabbit; 0.1% eye drop) was “—”, the Lens elasticity improvement (C57BL/6J mice [2]; 0.01% sample) was 31.1 μm and the Lens elasticity improvement (C57BL/6J mice [2]; 0.03% sample) was 60.2 μm. For the same compound, the Lens elasticity improvement (C57BL/6J mice [2]; 0.1% sample) was 66.7 μm and the “Lens elasticity effect (in words)” value (C57BL/6J mice [2]; [4]) was “showed an elasticity improving effect”.

For `OCCCCCCC1CCSS1` (centres unmarked) [Compound 5, 6-(1,2-Dithiolan-3-yl)hexan-1-ol], the Lens elasticity improvement (C57BL/6J mice [3]; 0.03% sample) was 22.3 μm, the Lens elasticity improvement (C57BL/6J mice [3]; 0.1% sample) was 26.6 μm and the “Lens elasticity effect (in words)” value (C57BL/6J mice [3]; [5]) was “potent elasticity improving effect”.

For `OCCCCC1CCSS1` (centres unmarked) [Compound 6, 4-(1,2-Dithiolan-3-yl)butan-1-ol], the Lens elasticity improvement (C57BL/6J mice [3]; 0.03% sample) was 40.0 μm, the Lens elasticity improvement (C57BL/6J mice [3]; 0.1% sample) was 58.9 μm and the “Lens elasticity effect (in words)” value (C57BL/6J mice [3]; [5]) was “potent elasticity improving effect”.

`OCCOCCC1CCSS1` (centres unmarked) [Compound 7, 2-[2-(1,2-Dithiolan-3-yl)ethoxy]ethan-1-ol] was tested, and the “Lens elasticity effect (in words)” value (C57BL/6J mice [3]; 0.1% sample group) was “potent elasticity improving effect” and the Lens elasticity improvement (C57BL/6J mice [3]; 0.1% sample) was 41.4 μm.
